Results reported in patent US8177962B2, “Metal corrosion inhibitor and hydrogen chloride formation inhibitor in a crude oil atmospheric distillation unit” (Kurita Water Industries, Ltd., priority 2002, dated 2012).

How the values were obtained:
[1] = thermal decomposition at 760° C., GC/MS, FIG. 3
Procedure: Choline chloride was subjected to thermal decomposition GC/MS analysis. 5989A manufactured by Hewlett Packard was used as the GC/MS analyzer, and DB624 manufactured by J&W (0.32 mm×30 m, membrane thickness of 1.8 μm) was used as the column. The temperature for thermal decomposition of choline chloride was 760° C.

[2] = Base dissociation constant (Kb) calculated from pH meter measurement; format: physicochemical; details: for Kb value (25° C.): Table 1; for Kb (25° C.) / Kb (170° C.): Table 6

Compound | thermal decomposition products [1] | Kb value (25° C.) [2] | Kb (25° C.) [2] | Kb (170° C.) [2]
C[N+](C)(C)CCO.[Cl-] [Choline hydrochloride (choline chloride), choline chloride] | produces methyl chloride, trimethylamine and N,N-dimethylaminoethanol by thermal decomposition, but does not produce hydrogen chloride |  |  | 
C[N+](C)(C)CCO.[OH-] [Choline, (β-hydroxyethyl)trimethylammonium hydroxide] |  | 3.14 × 10^−3 | 3.14 × 10^−3 | 8.40 × 10^−3
NC1CCCCC1 [Cyclohexylamine] |  | 3.39 × 10^−4 |  | 
NCCO [Monoethanolamine] |  | 3.15 × 10^−5 | 2.60 × 10^−5 | 8.42 × 10^−6
C1COCCN1 [Morpholine] |  | 2.09 × 10^−6 |  | 
Dimethylethanolamine |  |  | 2.21 × 10^−5 | 3.38 × 10^−5
